Experimental data from US20230227474A1, “COMPOSITIONS AND METHODS FOR CORRECTION OF ABERRANT SPLICING” (SKYHAWK THERAPEUTICS, INC., priority 2019, published 2023).
Like-named read-outs stand apart in the source and are kept apart here.

How the values were obtained:
mHTT protein = assay: mHTT Protein Assay (2B7-MW1, MSD); assay type: cell-based, human; conditions: GM04724 (CAG 70/20) Huntington's disease patient lymphoblast cells, 48 hours, read-out: HTT Potency - Protein: EC50 mHTT (average)
Method: Compounds are tested on GM04724 (CAG 70/20) Huntington's disease patient lymphoblast cells at doses ranging from 10 μM to 0.6 nM. 4,500 cells/well are seeded in 384 well plates. One plate replica is carried out for parallel viability testing by CellTiter Glo (CTG). Compounds are incubated for 48 hours. mHTT protein levels are assessed by the 2B7-MW1 assay via Mesoscale Discovery (MSD) as previously reported (Macdonald et al., 2014). The antibody pair is comprised of previously characterized monoclonals (2B7 and MW1) interrogating two regions for HTT conformation and biological properties: the N17 domain and the polyQ domain (Baldo et al., 2012; Ko et., 2001). 2B7-MW1 is dependent on subject/animal specific levels of HTT at the time of treatment. 2B7-MW1 is dependent on polyQ expansion (e.g., the higher the expansion the higher the signal) and on mHTT size (e.g., a similar polyQ will give higher signal with smaller HTT size). The viability readout is carried out by CTG according to the manufacturer's instructions. The results are show in Table B-5.

SMN protein = assay: SMN Protein Assay (MSD); assay type: cell-based, human; conditions: SMA patient fibroblasts (GM03813), 48 hours, read-out: SMN2 Potency- Protein: Protein FL EC50 (average)
Method: Compounds are tested on spinal muscular atrophy (SMA) patient fibroblasts (GM03813, Coriell) at doses ranging from 2.5 μM to 0.6 nM. 7000 cells/well are seeded in 96-well plates. Compounds are incubated for 48 hours and the cells are lysed with 100 μL of lysis buffer. 20 μL of lysate is used for SMN protein measurement by Mesoscale Discovery (MSD) assay developed by PharmOptima (Michigan). A standard curve prepared with SMN protein ranging from […] is used in each MSD plate to calculate the absolute SMN protein amount in each sample.

[1] = system: Huntingtin (HTT) transcripts; assay: Quantitative Splicing Assay (HTT); assay type: cell-based; conditions: Homo sapiens, GM04724 (CAG 70/20) Huntington's disease patient lymphoblasts, 24 h
Method: GM04724 (CAG 70/20) Huntington's disease patient lymphoblasts (Coriell) are plated in 96-well v-bottom plates at 50,000 cells/well. Immediately after plating, cells are dosed with compound for 24 h at concentrations ranging from 2.5 uM to 0.15 nM (0.1% DMSO). Treated cells are lysed and cDNA synthesized using the Fast Advanced Cells-to-Ct kit (Thermofisher A35378) according to the manufacturer's instructions. 2 uL of each cDNA are used in qPCR reactions to confirm the compound-induced inclusion of a cryptic exon within intron 49 of the Huntingtin (HTT) transcripts. The qPCR reactions are prepared in 384-well plates in 10 uL volume, using TaqMan™ Fast Advanced Master Mix [ThermoFisher; 4444965] with primers and probes shown in the table below. Reactions are run in a Quant Studio 6 qPCR instrument with default settings.

SMN2 = assay: Quantitative Splicing Assay (SMN); assay type: cell-based; conditions: Homo sapiens, Fibroblast, SMA patient fibroblasts (GM03813), 24 h
Method: Spinal muscular atrophy (SMA) patient fibroblasts (GM03813, Coriell) are plated in 96-well plates at 50,000 cells/well. Immediately after plating, cells are dosed with compounds for 24 h at concentrations ranging from 2.5 μM to 0.6 nM (0.1% DMSO). Treated cells are lysed and cDNA synthesized using the Fast Advanced Cells-to-Ct kit (Thermofisher A35378) according to the manufacturer's instructions. 2 μL of each cDNA are used in qPCR reactions. The qPCR reactions are prepared in 384-well plates in 10 μL volume, using TaqMan™ Fast Advanced Master Mix (ThermoFisher; 4444965) with primers and probes shown in the table below. Reactions are run in a Quant Studio 6 qPCR instrument with default settings.

Oc1cc(-c2cn[nH]c2)ccc1-c1cc2c(nn1)N([C@@H]1C[C@H]3CC[C@@H](C1)N3)CCO2 [Compound 1, 2-(8-((1R,3s,5S)-8-azabicyclo[3.2.1]octan-3-yl)-7,8-dihydro-6H-pyridazino[4,3-b][1,4]oxazin-3-yl)-5-(1H-pyrazol-4-yl)phenol]
EC50 (mHTT protein): 501 to 10000 nM | EC50 (SMN protein): 501 to 10000 nM

Oc1cc(-n2ccnc2)ccc1-c1cc2c(nn1)N([C@@H]1C[C@H]3CC[C@@H](C1)N3)CCO2 [Compound 3, 2-(8-((1R,3s,5S)-8-azabicyclo[3.2.1]octan-3-yl)-7,8-dihydro-6H-pyridazino[4,3-b][1,4]oxazin-3-yl)-5-(1H-imidazol-1-yl)phenol]
EC50 (mHTT protein): 501 to 10000 nM | EC50 (SMN protein): 501 to 10000 nM

Cn1cc(-c2ccc(-c3cc4c(nn3)N([C@@H]3C[C@H]5CC[C@@H](C3)N5)CCC4)c(O)c2)cn1 [Compound 2, 2-(8-((1R,3s,5S)-8-azabicyclo[3.2.1]octan-3-yl)-5,6,7,8-tetrahydropyrido[2,3-c]pyridazin-3-yl)-5-(1-methyl-1H-pyrazol-4-yl)phenol]
EC50 ([1]; qPCR HTTcryp49b (cryptic exon within intron 49), read-out: HTT Potency - Splicing: E49b EC50 (average)): 0.01 to 15 nM | EC50 ([1]; qPCR HTTex49_50, read-out: HTT Potency - Splicing: E49-50 EC50 (average)): 0.01 to 15 nM | EC50 (mHTT protein): 0.01 to 15 nM | EC50 (SMN2; qPCR SMN FL, read-out: SMN2 Potency- Splicing: Splicing FL EC50 (average)): 16 to 50 nM | IC50 (SMN2; qPCR SMN Δ7, read-out: SMN2 Potency- Splicing: Splicing D7 IC50 (average)): 0.01 to 15 nM | EC50 (SMN protein): 0.01 to 15 nM
